Measurements: US20230053540A1, “TREATMENT OF LIVER INJURY” (Massachusetts Institute of Technology, priority 2019, published 2023)

Tested on: hepatocytes
Assay: Seq-Well scRNA-Seq of hepatocytes after APAP overdose (signature scores, DEG vs untreated)
Type: in vivo, mouse
Conditions: APAP vs UT

CC(=O)Nc1ccc(O)cc1 [APAP, acetaminophen]
Ndufb4 logFC: −0.4537 | Ndufb6 logFC: −0.5077 | Ndufb9 logFC: −0.5038 | Ndufb11 logFC: −0.5097 | Ndufs6 logFC: −0.5379 | Nedd4 logFC: 0.3774 | Nit2 logFC: −0.4859 | Nolc1 logFC: 0.4722 | Nop56 logFC: 0.2657 | Nr5a2 logFC: 0.322 | Nrp1 logFC: 0.3608 | Oaz1 logFC: −0.4185 | Orm2 logFC: 0.2715 | Pah logFC: −0.5221 | Park7 logFC: −0.2602 | Pdcd4 logFC: 0.4882 | Pdia4 logFC: 0.4882 | Pdia6 logFC: −0.39 | Pemt logFC: −0.5512 | Pfkfb2 logFC: 0.29 | Picalm logFC: 0.7545 | Pik3c2a logFC: 0.3249 | Plec logFC: 0.4675 | Plg logFC: 0.2617 | Ppan logFC: 0.2724 | Ppib logFC: −0.5897 | Ppm1k logFC: −0.5584 | Ppp1r3b logFC: −0.4027 | Ppp2r5a logFC: −0.2605 | Prg4 logFC: 0.4306 | Prkd3 logFC: 0.3665 | Pten logFC: 0.3559 | Ptms logFC: 0.2678 | Ptpn1 logFC: 0.4163 | Ptpn12 logFC: 0.3342 | Qdpr logFC: −0.5236 | Qsox1 logFC: 0.3424 | Rab1 logFC: 0.3526 | Rad54l2 logFC: 0.3887 | Ranbp2 logFC: 0.5985 | Rarres2 logFC: −0.5522 | Rdh16 logFC: 0.2692 | Rgs2 logFC: 0.3957 | Rnd3 logFC: 0.3655 | Rock2 logFC: 0.5941 | Rora logFC: 0.6444 | Rpl32 logFC: −0.5322 | Rpl36a1 logFC: −0.4755 | Rplp1 logFC: −0.5047 | Rpn1 logFC: 0.4124 | Rps2 logFC: −0.3879 | Rrbp1 logFC: 0.3069 | S100a1 logFC: −0.3762 | Saa4 logFC: −0.571 | Sar1b logFC: −0.3176 | Sat1 logFC: 0.6887 | Sc5d logFC: −0.5009 | Sdad1 logFC: 0.3124 | Sdc3 logFC: 0.3598 | Sdc4 logFC: 0.6196 | Sdhd logFC: −0.3353 | Sds logFC: −0.407 | Sec61a1 logFC: 0.3139 | Selenbp1 logFC: −0.4937 | Serp1 logFC: 0.3124 | Serpina3c logFC: −0.4725 | Sfxn1 logFC: 0.3049 | Slc2a2 logFC: −0.3123 | Slc3a1 logFC: 0.341 | Slc10a2 logFC: 0.299 | Slc20a1 logFC: 0.3572 | Slc37a4 logFC: 0.2683 | Slc38a3 logFC: −0.4098 | Slc38a4 logFC: 0.2637 | Slco1a1 logFC: −0.3628 | Son logFC: 0.5429 | Sorl1 logFC: 0.3067 | Sparcl1 logFC: −0.2536 | Spcs3 logFC: 0.3942 | Spred1 logFC: 0.3884 | Sqstm1 logFC: 0.7432 | Ssr1 logFC: 0.3278 | Ssr4 logFC: −0.5076 | St3gal1 logFC: 0.5287 | Stard4 logFC: 0.3515 | Stard10 logFC: −0.3383 | Stat3 logFC: 0.7154 | Stk40 logFC: 0.5364 | Tacc2 logFC: 0.3293 | Tatdn2 logFC: 0.3733 | Tbc1d15 logFC: 0.4886 | Tcerg1 logFC: 0.3575 | Thrsp logFC: −0.725 | Tiparp logFC: 0.5456 | Tjp2 logFC: 0.4115 | Tlcd2 logFC: −0.5945 | Tm4sf4 logFC: 0.5126 | Tmed7 logFC: 0.3868 | Tmem30a logFC: 0.3328 | Tmem87b logFC: 0.4344 | Tmem106b logFC: 0.2802 | Tmem256 logFC: −0.5185 | Tnfrsf1a logFC: 0.5996 | Tra2a logFC: 0.7123 | Tram1 logFC: 0.4111 | Trip12 logFC: 0.3283 | Tsc22d2 logFC: 0.3911 | Tsku logFC: 0.3676 | Tsr1 logFC: 0.3603 | Ttc39c logFC: −0.6363 | Tubb2a logFC: 0.7494 | Ubxn4 logFC: 0.2503 | Ucp2 logFC: 0.2612 | Ugdh logFC: 0.6331 | Uggt1 logFC: 0.2845 | Ugt2a3 logFC: −0.3334 | Uox logFC: −0.5531 | Upb1 logFC: −0.4187 | Upp2 logFC: −0.6903 | Uqcr10 logFC: −0.4519 | Uqcr11 logFC: −0.6031 | Uqcrh logFC: −0.4292 | Usmg5 logFC: −0.4305 | Uso1 logFC: 0.3881 | Usp4 logFC: 0.3247 | Usp9x logFC: 0.4076 | Vkorc1 logFC: −0.4042 | Vsig4 logFC: 0.4833 | Wfdc17 logFC: 0.4867 | Xbp1 logFC: 0.6032 | Ywhag logFC: 0.5824 | Zfp683 logFC: −0.4217 | mmu-mir-6236 logFC: 0.7875 | mt-Atp6 logFC: −0.5737 | mt-Nd6 logFC: −0.4779 | mt-Tm logFC: 0.2847 | mt-Tq logFC: 0.2879 | 15-Sep logFC (composite DEG): −0.4092 | 0610005C13Rik logFC (composite DEG): −0.4251 | 0610011F06Rik logFC (composite DEG): −0.3037 | 1100001G20Rik logFC (composite DEG): −0.8516 | 1110001J03Rik logFC (composite DEG): −0.4328 | 1500011K16Rik logFC (composite DEG): −0.3296 | 1500017E21Rik logFC (composite DEG): −0.461 | 1700017B05Rik logFC (composite DEG): 0.3307 | 1810022K09Rik logFC (composite DEG): −0.3001 | 2010003K11Rik logFC (composite DEG): 0.5884 | 2010107E04Rik logFC (composite DEG): −0.3182 | 2410015M20Rik logFC (composite DEG): −0.4021 | 2810007J24Rik logFC (composite DEG): −0.9143 | AW112010 logFC (composite DEG): −0.2981 | Aadat logFC (composite DEG): −0.3186 | Aass logFC (composite DEG): 0.4775 | Abca6 logFC (composite DEG): 0.3328 | Abcb4 logFC (composite DEG): 0.4947 | Abcc3 logFC (composite DEG): 0.3638 | Abcd2 logFC (composite DEG): 0.2851 | Abcd3 logFC (composite DEG): −0.2718 | Abhd14b logFC (composite DEG): −0.3937 | Acad11 logFC (composite DEG): 0.3571 | Acadl logFC (composite DEG): 0.3162 | Acads logFC (composite DEG): −0.3242 | Acat1 logFC (composite DEG): 0.3689 | Acbd5 logFC (composite DEG): −0.3952 | Acly logFC (composite DEG): 0.3288 | Aco2 logFC (composite DEG): 0.2859 | Acot1 logFC (composite DEG): 0.3078 | Acot12 logFC (composite DEG): 0.3078 | Acsl1 logFC (composite DEG): −0.3703 | Acsm1 logFC (composite DEG): −0.3692 | Actb logFC (composite DEG): 1.06 | Actn4 logFC (composite DEG): 0.3124 | Acy3 logFC (composite DEG): −0.3137 | Adamts1 logFC (composite DEG): 0.2826 | Adck3 logFC (composite DEG): −0.8761 | Adh1 logFC (composite DEG): −1.255 | Adtrp logFC (composite DEG): −0.3664 | Aff4 logFC (composite DEG): 0.6163 | Agpat2 logFC (composite DEG): −0.2982 | Agpat6 logFC (composite DEG): 0.3963 | Agpat9 logFC (composite DEG): 0.327 | Agxt logFC (composite DEG): −0.2584 | Ahcy logFC (composite DEG): −0.563 | Ak2 logFC (composite DEG): −0.3451 | Akap11 logFC (composite DEG): 0.3464 | Akap13 logFC (composite DEG): 0.4953 | Akr1a1 logFC (composite DEG): −0.3269 | Akr1c19 logFC (composite DEG): −0.2727 | Akr1d1 logFC (composite DEG): 0.361 | Alad logFC (composite DEG): −0.4206 | Aldh4a1 logFC (composite DEG): −0.2907 | Aldh9a1 logFC (composite DEG): 0.4159 | Aldob logFC (composite DEG): 0.3655 | Amacr logFC (composite DEG): −0.4136 | Amy1 logFC (composite DEG): 0.4327 | Anapc13 logFC (composite DEG): −0.3642 | Ankrd11 logFC (composite DEG): 0.4156 | Anp32a logFC (composite DEG): −0.317 | Apc logFC (composite DEG): 0.6067 | Apcs logFC (composite DEG): 0.7584 | Aplp2 logFC (composite DEG): 0.3394 | Apoa4 logFC (composite DEG): 1.368
